The values that follow come from ChEMBL document CHEMBL1153072, “Synthesis and structure-activity relationship of dicationic diaryl ethers as novel potent anti-MRSA and anti-VRE agents” (2009).

Common to all, as to format: functional
For assay [1], the system named is Candida albicans. Description: Antifungal activity against Candida albicans ATCC 90028.
The test system of assay [2] is Staphylococcus aureus. Description: Antibacterial activity against Staphylococcus aureus ATCC 29213.
In assay [3] the test system is Staphylococcus epidermidis. Description: Antibacterial activity against methicillin-resistant Staphylococcus epidermidis ATCC 51625.
Assay [4] relates to Enterococcus faecium. Description: Antibacterial activity against vancomycin-resistant Enterococcus faecium ATCC 700221.
In assay [5] the test system is Enterococcus faecalis. Description: Antibacterial activity against vancomycin-resistant Enterococcus faecalis ATCC 51575.
In assay [6] the test system is Bacteroides fragilis. Description: Antibacterial activity against […] ATCC 23745.
Assay [7] can be described thus: Ratio of MIC for Candida albicans ATCC 90028 to MIC for methicillin-resistant Staphylococcus aureus ATCC 33591.
Assay [8] can be described thus: Ratio of MIC for Candida albicans ATCC 90028 to MIC for vancomycin-resistant Enterococcus faecium ATCC 700221.
The subject of assay [9] is Clostridium perfringens. Description: Antibacterial activity against Clostridium perfringens ATCC 10388.
Assay [10] relates to Bacillus cereus. Description: Antibacterial activity against Bacillus cereus ATCC 11778.
Assay [11] concerns Streptococcus pneumoniae. Description: Antibacterial activity against Streptococcus pneumoniae ATCC 6301.
The test system of assay [12] is Staphylococcus epidermidis. Description: Antibacterial activity against Staphylococcus epidermidis ATCC 12228.
Assay [13] relates to Staphylococcus aureus. Description: Antibacterial activity against multidrug resistant Staphylococcus aureus BAA-39.
Assay [14] deals with Staphylococcus aureus. Description: Antibacterial activity against methicillin-resistant Staphylococcus aureus ATCC 33591.
Assay [15] concerns Bacillus subtilis. Description: Antibacterial activity against Bacillus subtilis ATCC 23857.

Converted amounts (≈) assume the structure as drawn.

One may read the MIC as the least concentration at which growth counts as inhibited. On to `N=C(c1ccc2[nH]c(-c3ccc(Oc4ccc(-c5nc6cc(C(=N)N7CCSCC7)ccc6[nH]5)cc4)cc3)nc2c1)N1CCSCC1`, for which the MIC in assay [1] was 16 µg/mL (≈ 24.3 µM); in [2], 0.5 µg/mL (≈ 0.759 µM); in [3], 0.25 µg/mL (≈ 0.379 µM); in [4], 0.5 µg/mL (≈ 0.759 µM); in [5], 0.5 µg/mL (≈ 0.759 µM); in assay [6], 4 µg/mL (≈ 6.07 µM). The minimal inhibitory concentration (MIC) stood at 1 µg/mL (≈ 1.52 µM) in assay [9]; 0.5 µg/mL (≈ 0.759 µM) in assay [10]; 0.25 µg/mL (≈ 0.379 µM) in assay [11]; 0.12 µg/mL (≈ 0.182 µM) in [12]; 0.5 µg/mL (≈ 0.759 µM) in assay [13]; 0.25 µg/mL (≈ 0.379 µM) in assay [14]. Also, the MIC in [15] came to 0.25 µg/mL (≈ 0.379 µM). Further, the Ratio in [7] and in [8] was 32 throughout.

As for `N=C(c1ccc2[nH]c(-c3ccc(Oc4ccc(-c5nc6cc(C(=N)N7CCCCCC7)ccc6[nH]5)cc4)cc3)nc2c1)N1CCCCCC1`, the MIC in assay [1] is 8 µg/mL (≈ 12.3 µM); in assay [2] it was 0.25 µg/mL (≈ 0.384 µM); in assay [3] it was 0.25 µg/mL (≈ 0.384 µM); in assay [4] it was 0.5 µg/mL (≈ 0.768 µM); in assay [5], 0.5 µg/mL (≈ 0.768 µM); in [6], 4 µg/mL (≈ 6.15 µM). Also, the MIC came to 2 µg/mL (≈ 3.07 µM) in [9]; 0.5 µg/mL (≈ 0.768 µM) in assay [10]; 0.12 µg/mL (≈ 0.184 µM) in assay [11]; 0.12 µg/mL (≈ 0.184 µM) in assay [12]; 0.25 µg/mL (≈ 0.384 µM) in [13]; 0.25 µg/mL (≈ 0.384 µM) in assay [14]. For the same molecule, the MIC in assay [15] was determined as 0.25 µg/mL (≈ 0.384 µM).

Turning to `CC(C)NC(=N)c1ccc2[nH]c(-c3ccc(Oc4ccc(-c5nc6cc(C(=N)NC(C)C)ccc6[nH]5)c(Cl)c4)cc3)nc2c1`, the MIC was 2 µg/mL (≈ 3.3 µM) in [1]; 0.25 µg/mL (≈ 0.413 µM) in assay [2]; no more than 0.06 µg/mL in assay [3]; no more than 0.06 µg/mL in assay [4]; 0.12 µg/mL (≈ 0.198 µM) in [5]; 4 µg/mL (≈ 6.61 µM) in assay [6]. Moreover, the MIC in [9] was 0.25 µg/mL (≈ 0.413 µM); in [10], 0.12 µg/mL (≈ 0.198 µM); in assay [11], no more than 0.06 µg/mL; in assay [12], no more than 0.06 µg/mL; in assay [13], 0.5 µg/mL (≈ 0.826 µM); in assay [14] it was 0.12 µg/mL (≈ 0.198 µM). In [15], this molecule returned an MIC of no more than 0.06 µg/mL.

For the molecule `CC(C)NC(=N)c1ccc2cc(-c3ccc(Oc4ccc(-c5cc6ccc(C(=N)NC(C)C)cc6[nH]5)cc4)cc3)[nH]c2c1`, the MIC was 0.5 µg/mL (≈ 0.879 µM) in [1]; 0.12 µg/mL (≈ 0.211 µM) in assay [2]; no more than 0.06 µg/mL in assay [3]; no more than 0.06 µg/mL in assay [4]; 0.25 µg/mL (≈ 0.44 µM) in assay [5]; 0.125 µg/mL (≈ 0.22 µM) in assay [6]. Moreover, the minimal inhibitory concentration (MIC) in [9] is 0.5 µg/mL (≈ 0.879 µM); in [10], no more than 0.06 µg/mL; in assay [11] it was no more than 0.06 µg/mL; in assay [12], no more than 0.06 µg/mL; in assay [13], no more than 0.06 µg/mL; in assay [14], no more than 0.06 µg/mL. Moreover, the MIC in [15] was no more than 0.06 µg/mL. Further, the Ratio in [7] turned out to be 8.

Regarding `CC1CC(C)CN(C(=N)c2ccc3[nH]c(-c4ccc(Oc5ccc(-c6nc7cc(C(=N)N8CC(C)CC(C)C8)ccc7[nH]6)cc5)cc4)nc3c2)C1` (stereo unspecified), the MIC turned out to be 8 µg/mL (≈ 11.8 µM) in assay [1]; 0.5 µg/mL (≈ 0.737 µM) in assay [2]; 0.5 µg/mL (≈ 0.737 µM) in assay [3]; 0.5 µg/mL (≈ 0.737 µM) in assay [4]; 1 µg/mL (≈ 1.47 µM) in [5]; 4 µg/mL (≈ 5.89 µM) in assay [6]. Further, the MIC in assay [9] is 2 µg/mL (≈ 2.95 µM); in assay [10], 1 µg/mL (≈ 1.47 µM); in assay [11], 0.5 µg/mL (≈ 0.737 µM); in assay [12], 0.25 µg/mL (≈ 0.368 µM); in assay [13], 0.5 µg/mL (≈ 0.737 µM); in [14] it was 0.25 µg/mL (≈ 0.368 µM). Moreover, the minimum inhibitory concentration (MIC) in [15] turned out to be 0.25 µg/mL (≈ 0.368 µM).

`N=C(NC1CCCC1)c1ccc2[nH]c(-c3ccc(Oc4ccc(-c5nc6cc(C(=N)NC7CCCC7)ccc6[nH]5)cc4)cc3)nc2c1`: the MIC in [1] is 2 µg/mL (≈ 3.21 µM); in assay [2] it was 0.25 µg/mL (≈ 0.401 µM); in assay [3], 0.12 µg/mL (≈ 0.193 µM); in [4], less than 0.06 µg/mL; in assay [5] it was 0.25 µg/mL (≈ 0.401 µM); in assay [6], 32 µg/mL (≈ 51.4 µM). The MIC was 0.25 µg/mL (≈ 0.401 µM) in assay [9]; less than 0.06 µg/mL in [10]; less than 0.06 µg/mL in [11]; 0.12 µg/mL (≈ 0.193 µM) in assay [12]; 0.5 µg/mL (≈ 0.803 µM) in assay [13]; 0.5 µg/mL (≈ 0.803 µM) in assay [14]. Also, the MIC in assay [15] was less than 0.06 µg/mL.
